In patent US12319675B2 (Artax Biopharma Inc., priority 2018, dated 2025):
Like-named read-outs stand apart in the source and are kept apart here.

Legend:
[1] = Microsomal stability assay, mouse; type: in vitro ADME; details: mouse microsomes; for half-life: read-out: Microsomal Stability (T1/2 min) Mouse
Description: (§1) Microsomal stability assays were performed using mouse, rat, and human […] according to methods well-known in the art. Microsomal stability results are shown in Table 2 for selected compounds of the invention. The compound numbers correspond to the compound numbers in Table 1. […] “N/A” indicates not assayed.

[2] = Microsomal stability assay, rat; type: in vitro ADME; details: rat microsomes; for half-life: read-out: Microsomal Stability (T1/2 min) Rat
Description: as §1

[3] = Microsomal stability assay, human; type: in vitro ADME; details: human microsomes; for half-life: read-out: Microsomal Stability (T1/2 min) Human
Description: as §1

[4] = biological target: Nck SH3 domain interaction with the proline rich sequence of TCR subunit CD3ε (Homo sapiens, UniProt P16333); assay: Competitive binding, biosensor with Interferometric Optical Detection Method (IODM); details: ratio of 1:1 between Nck SH3 domain and inhibitors; biotinylated CD3ε peptide on sensing surface
Description: Inhibition of Nck SH3 domain interaction with the proline rich sequence of TCR subunit CD3ε was measured by optical read-out of a biosensor based on the Interferometric Optical Detection Method (IODM), using established methods (WO 2010/026269; WO 2014/020159; Laguna, M. et al., Sensors, 2015, 15(8):19819-29; and Holgado, M. et al., Sensors, 2014, 14(2): 3675-89).
Briefly, a Biophotonic Cell (BICELL) based on Fabry-Perot interferometers was used as the photonic transducer. The BICELL was fabricated using SU8 in cyclopentanone according to known methods (e.g., Laguna, M. F. et al., Sensors, 2014, 14(4): 6695-6700). Cured film was then treated with 95% sulfuric acid for 10 seconds. Streptavidin was then immobilized on the sensing surface in phosphate buffered saline (PBS; pH 7.4) over 20 min at 37° C. followed by blocking of the surface with 5% skin milk in PBS (pH 7.4). Biotinylated CD3ε peptide (SEQ ID NO: 001) in PBS (pH 7.4) was incubated with the streptavidin coated film to biofunctionalize the sensing surface (20 min at 37° C.).
Competitive binding assays were performed to determine the affinity reaction of inhibitors. The screening was carried out using a ratio of 1:1 between Nck SH3 domain and inhibitors. The optical readout of the biosensor was accomplished by a Fourier transform visible-infrared (FT-VIS-IR) spectrometer. Competitive binding results are shown in Table 3 for selected compounds of the invention. The compound numbers correspond to the compound numbers in Table 1. Compounds having a designation of “A” provide an Increased Relative Optical Power (ΔIROP) of less than or equal to thirty percent (≤30%); compounds having a designation of “B” provide a ΔIROP of between thirty and fifty percent (>30% to ≤50%); compounds having a designation of “C” provide an ΔIROP of between fifty and seventy percent (>50% to ≤70%); and compounds having a designation of “D” provide a ΔIROP of greater than seventy percent (>70%).

[5] = tested on: CD3 mediated phosphorylation of ZAP70 in Jurkat cells; assay: CD3 mediated phosphorylation of ZAP70 in Jurkat cells (HTRF); type: cell-based; details: Jurkat cells stimulated with 20 μg/mL anti-CD3 antibody; for IC50: read-out: pZAP70 Inhibition IC50; for Emax: read-out: pZAP70 Inhibition - Maximum Percent Inhibition (% Inhibition)
Description: Inhibition of CD3 mediated phosphorylation of ZAP70 in Jurkat cells was measured by a cellular based Homogeneous Time-Resolved Fluorescence (HTRF) assay utilizing a Total ZAP-70 HTRF kit.
Briefly, Jurkat cells (˜1.3×10^6 cells/mL) were harvested on the day of experimentation. Cells were washed with PBS and resuspended in Assay Buffer (RPMI 1640 media plus 10% FBS) and counted.
Jurkat cells were seeded in Assay media at a total volume of 4 μL/well (40K cells/well) in a 384-low volume white flat bottom plate. The cells were then incubated at 37° C./5% CO2 for 30 minutes. The cells were then treated in duplicate with test compounds (3×) and reference compounds (3×) in a total volume of 4 μL, respectively. A compound dilution scheme is exemplified in FIG. 1.
The plate was then transferred to an incubator maintained at 37° C./5% CO2 for 2 minutes. Following incubation, cells were stimulated with 20 μg/mL of anti-CD3 antibody (1 mg/mL stock) and assay media was used to bring the total well volume 4 μL/well. The plate was then transferred to the incubator maintained at 37° C./5% CO2 for 2.5 minutes. Following incubation, 4 μL of lysis buffer (4×) provided in the kit was added to each well. The plate was then incubated at RT for 1 hour with gentle shaking. Following incubation, 4 μL of detection mix was added to each well and the plate was sealed with a plate sealer and left overnight at RT in the dark.
The Envision reader was set-up for Eu^3+ cryptate and fluorescence emission was read at two different wavelengths (620 nm and 665 nm). • Excitation filter: UV2(TRF) 320 nm • Emission filter: 665 nm • 2nd Emission filter: Europium 615 nm • Measurement height (mm): 6.5 • Excitation light (%): 100 • Delay (μs): 50 • Window time (μs): 400 • Time between flashes (μs): 2000 • Number of flashes: 100 • Number of flashes for 2nd detector: 100
The data is represented by the signal form the two wavelengths:
The ratio of the signal is calculated for each individual well:
The data was plotted using Graph Pad Prism. The significance between untreated vs. treated groups was assessed by One-way ANOVA and Bonferroni posttest comparing all columns in the graph.
ZAP70 IC50 results are shown in Table 6 for select compounds of the invention. The compound numbers correspond to the compound numbers in Table 1. […] “ND” indicates not determined.
ZAP70 percent maximum inhibition results are shown in Table 7 for select compounds of the invention. The compound numbers correspond to the compound numbers in Table 1.

[6] = Homo sapiens, maximum inhibition

Compound	Microsomal Stability (T1/2 min) Mouse ([1]; half-life)	Microsomal Stability (T1/2 min) Rat ([2]; half-life)	Microsomal Stability (T1/2 min) Human ([3]; half-life)	ΔIROP (Increased Relative Optical Power) [4]	pZAP70 Inhibition - Maximum Percent Inhibition (% Inhibition) ([5]; maximum inhibition)	IC50 [5] [nM]	half-life [1] [min]	half-life [2] [min]	half-life [3] [min]	Emax [5, 6] [%]	IC50 ([5]; Homo sapiens) [nM]
4-((4-(4-fluorophenyl)-6-(trifluoromethoxy)-2H-chromen-3-yl)methyl)morpholine [Compound I-16]	B (a half-life of between ten (10) and thirty (30) minutes)	C (a half-life of less than ten (<10) minutes)	A (a half-life of greater than thirty (>30) minutes)	B (a ΔIROP of between thirty and fifty percent (>30% to ≤50%))	C (a percent maximum inhibition of between forty and greater than thirty percent (40%≥x>30%))	< 1					
O=C(C1=C(c2ccc(F)cc2)c2cc(OC(F)F)ccc2OC1)N1CCCC1 [Compound I-1]				C (an ΔIROP of between fifty and seventy percent (>50% to ≤70%))			< 10	< 10	< 10		
CCNC(=O)C1=C(c2ccc(F)cc2)c2cc(OC(F)F)ccc2OC1 [Compound I-2]				C (an ΔIROP of between fifty and seventy percent (>50% to ≤70%))			< 10	< 10	10 to 30		
CN1CCN(C(=O)C2=C(c3ccc(F)cc3)c3cc(OC(F)F)ccc3OC2)CC1 [Compound I-3]				B (a ΔIROP of between thirty and fifty percent (>30% to ≤50%))			< 10	< 10	10 to 30	≤ 30	< 1
CN(C)CCNC(=O)C1=C(c2ccc(F)cc2)c2cc(OC(F)F)ccc2OC1 [Compound I-4]				B (a ΔIROP of between thirty and fifty percent (>30% to ≤50%))			10 to 30	10 to 30	> 30		
Fc1ccc(C2=C(CN3CCOCC3)COc3ccc(OC(F)F)cc32)cc1 [Compound I-5]				B (a ΔIROP of between thirty and fifty percent (>30% to ≤50%))			10 to 30	10 to 30	10 to 30		
CCNCC1=C(c2ccc(F)cc2)c2cc(OC(F)F)ccc2OC1 [Compound I-6]				C (an ΔIROP of between fifty and seventy percent (>50% to ≤70%))			> 30	< 10	> 30		
CCNC(=O)C1=C(c2ccc(F)cc2)c2cc(OC(F)(F)F)ccc2OC1 [Compound I-8]				B (a ΔIROP of between thirty and fifty percent (>30% to ≤50%))			< 10	< 10	> 30		
CN1CCN(C(=O)C2=C(c3ccc(F)cc3)c3cc(OC(F)(F)F)ccc3OC2)CC1 [Compound I-9]				D (a ΔIROP of greater than seventy percent (>70%))			10 to 30	< 10	10 to 30		
CN(C)CCNC(=O)C1=C(c2ccc(F)cc2)c2cc(OC(F)(F)F)ccc2OC1 [Compound I-10, N-(2-(dimethylamino)ethyl)-4-(4-fluorophenyl)-6-(trifluoromethoxy)-2H-chromene-3-carboxamide]				A (an Increased Relative Optical Power (ΔIROP) of less than or equal to thirty percent (≤30%))			> 30	> 30	> 30		
Fc1ccc(C2=C(c3nc(-c4ccccc4)no3)COc3ccc(OCC4CC4)cc32)cc1 [Compound I-12]				C (an ΔIROP of between fifty and seventy percent (>50% to ≤70%))			> 30	> 30	10 to 30	≤ 30	
[2H]C([2H])([2H])Oc1ccc2c(c1)C(c1ccc(F)cc1)=C(CN1CCCC1)CO2 [Compound I-13]				A (an Increased Relative Optical Power (ΔIROP) of less than or equal to thirty percent (≤30%))			< 10	< 10	10 to 30	40 to 50	1 to 10
Fc1ccc(C2=C(CN3CCCC3)COc3ccc(C(F)(F)F)cc32)cc1 [Compound I-17, 1-((4-(4-fluorophenyl)-6-(trifluoromethyl)-2H-chromen-3-yl)methyl)pyrrolidine]				C (an ΔIROP of between fifty and seventy percent (>50% to ≤70%))			> 30	10 to 30	> 30		
CN1CCN(C(=O)C2=C(c3ccc(F)cc3)c3cc(Cl)ccc3OC2)CC1 [Compound I-25]				B (a ΔIROP of between thirty and fifty percent (>30% to ≤50%))			< 10	< 10	10 to 30		
CN1CCN(C(=O)C2=C(c3ccc(F)cc3)c3cc(C(F)(F)F)ccc3OC2)CC1 [Compound I-26, (4-(4-fluorophenyl)-6-(trifluoromethyl)-2H-chromen-3-yl)(4-methylpiperazin-1-yl)methanone]				C (an ΔIROP of between fifty and seventy percent (>50% to ≤70%))			< 10	< 10	10 to 30		
COc1ccc2c(c1)C(c1ccc(Cl)cc1)=C(C(=O)N1CCN(C)CC1)CO2 [Compound I-28]				D (a ΔIROP of greater than seventy percent (>70%))			< 10	< 10	< 10		
COc1ccc2c(c1)C(c1ccc(C(F)(F)F)cc1)=C(C(=O)N1CCN(C)CC1)CO2 [Compound I-29]				B (a ΔIROP of between thirty and fifty percent (>30% to ≤50%))			< 10	10 to 30	< 10		
COc1ccc2c(c1)C(c1cccc(F)c1)=C(C(=O)N1CCN(C)CC1)CO2 [Compound I-31]				C (an ΔIROP of between fifty and seventy percent (>50% to ≤70%))			< 10	< 10	10 to 30		
N#CCCOc1ccc2c(c1)C(c1ccc(F)cc1)=C(CN1CCCC1)CO2 [Compound I-32, 3-((4-(4-fluorophenyl)-3-(pyrrolidin-1-ylmethyl)-2H-chromen-6-yl)oxy)propanenitrile]				B (a ΔIROP of between thirty and fifty percent (>30% to ≤50%))			10 to 30	< 10	10 to 30		
